Data published in US8673915B2, “P 2×4 receptor antagonist” (Nippon Chemiphar Co., Ltd., priority 2010, dated 2014).
Counter-ions that a name gives are not always drawn.

target: T1, P2X4 receptor (Homo sapiens, UniProt Q99571); experiment: not given; conditions: disclosed in Non-patent document 8; cited from earlier work
T1 sequence (Q99571 1-388): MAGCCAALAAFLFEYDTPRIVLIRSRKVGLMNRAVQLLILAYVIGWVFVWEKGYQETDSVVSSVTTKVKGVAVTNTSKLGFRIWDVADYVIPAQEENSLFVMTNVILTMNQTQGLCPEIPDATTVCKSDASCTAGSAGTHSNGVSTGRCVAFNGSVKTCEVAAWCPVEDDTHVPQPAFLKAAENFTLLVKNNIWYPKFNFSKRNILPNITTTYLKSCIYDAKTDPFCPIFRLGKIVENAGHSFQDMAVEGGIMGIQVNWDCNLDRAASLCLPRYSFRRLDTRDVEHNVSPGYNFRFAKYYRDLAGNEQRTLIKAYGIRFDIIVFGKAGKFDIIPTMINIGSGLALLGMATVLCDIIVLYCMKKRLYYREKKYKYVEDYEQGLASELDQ

SMILES	P2X4 receptor antagonism
Fc1ccc([C@@H]2CCNC[C@H]2COc2ccc3c(c2)OCO3)cc1 [Paroxetine]	shows P2X4 receptor antagonism

target: T1, P2X4 receptor; experiment: Intracellular calcium assay (Fura-2 AM) of ATP-induced calcium influx in 1321N1 cells stably expressing human P2X4 receptors; type: cell-based; conditions: Table 25, Example 30; 1321N1 cells expressing human P2X4; compounds added 15 minutes before ATP; Fura-2 340/380 nm ratio; read-out: IC50 (P2X4 receptor antagonism)
Description: 1321N1 cells stably expressing human P2X4 receptors were plated in 96-well assay plate and cultured 24 hours at 37° C. in an atmosphere of 5% CO2 for intracellular calcium assay. Fura-2 AM calcium fluorescent indicator was used for the intracellular calcium assay. Fura-2 AM was dissolved in an assay buffer, and the solution was loaded onto cells. The obtained plate was used for fluorescent assay. Test compounds were treated to cells 15 minutes before the addition of ATP, and the response to intracellular calcium influx induced by addition of ATP was monitored by a micro plate reader. The fluorescence ratio of excitations wavelengths of 340 nm and 380 nm was used as the index of intracellular calcium change. The inhibition activities of the test compounds were calculated by comparison with the absence of the test compound (control).
P2X4 receptor antagonism of the compound of the present invention was measured as described below.
P2X4 receptor antagonism of the compound of the present invention was measured in the same manner as in Example 30.

SMILES	IC50 [nM]
COc1cccc(-n2c(=O)c(=O)[nH]c3c4ccccc4ccc32)c1 [Example 3, 4-(3-Methoxyphenyl)-1,4-dihydrobenzo[f]quinoxaline-2,3-dione]	6600
O=c1[nH]c2c3c(ccc2n(-c2cccc(NS(=O)(=O)c4ccccc4[N+](=O)[O-])c2)c1=O)CCCC3 [Example 9, N-[3-(2,3-Dioxo-2,3,7,8,9,10-hexahydrobenzo[f]quinoxalin-4(1H)-yl)phenyl]-2-nitrobenzenesulfonamide]	2100
Nc1cccc(-n2c(=O)c(=O)[nH]c3c4c(ccc32)CCCC4)c1 [Example 7, 4-(3-Aminophenyl)-1,4,7,8,9,10-hexahydrobenzo[f]quinoxaline-2,3-dione hydrochloride]	5100
O=c1[nH]c2c3ccccc3ccc2n(-c2cccc(-c3nnn[nH]3)c2)c1=O [Example 2, 4-[3-(1H-Tetrazol-5-yl)phenyl]-1,4-dihydrobenzo[f]quinoxaline-2,3-dione sodium salt]	460

same assay, conditions: Table 26, Example 31; same manner as in Example 30; read-out: IC50 (P2X4 receptor antagonism)

SMILES	IC50 [nM]
O=c1[nH]c2c3c(ccc2n(-c2cccc(NS(=O)(=O)c4cccc5ccccc45)c2)c1=O)CCCC3 [Example 24, N-[3-(2,3-Dioxo-2,3,7,8,9,10-hexahydro-1H-benzo[f]quinoxalin-4-yl)phenyl]-1-naphthalenesulfonamide]	2600
O=c1[nH]c2c3c(ccc2n(-c2cccc(NS(=O)(=O)c4cccs4)c2)c1=O)CCCC3 [Example 26, N-[3-(2,3-Dioxo-2,3,7,8,9,10-hexahydro-1H-benzo[f]quinoxalin-4-yl)phenyl]-2-thiophenesulfonamide]	1800
O=c1[nH]c2c3c(ccc2n(-c2cccc(NS(=O)(=O)c4cccnc4)c2)c1=O)CCCC3 [Example 27, N-[3-(2,3-Dioxo-2,3,7,8,9,10-hexahydro-1H-benzo[f]quinoxalin-4-yl)phenyl]-3-pyridinesulfonamide hydrochloride]	3000
O=c1[nH]c2c3ccccc3ccc2n(-c2ccc(O)cc2)c1=O [Example 17, 4-(4-Hydroxyphenyl)-1,4-dihydrobenzo[f]quinoxaline-2,3-dione sodium salt]	2700
Nc1ccc(-n2c(=O)c(=O)[nH]c3c4ccccc4ccc32)cc1 [Example 18, 4-(4-Aminophenyl)-1,4-dihydrobenzo[f]quinoxaline-2,3-dione hydrochloride]	5700
O=c1[nH]c2c3c(ccc2n(-c2cccc(NS(=O)(=O)c4cccc5cccnc45)c2)c1=O)CCCC3 [Example 28, N-[3-(2,3-Dioxo-2,3,7,8,9,10-hexahydro-1H-benzo[f]quinoxalin-4-yl)phenyl]-8-quinolinesulfonamide hydrochloride]	1900
O=c1[nH]c2c3c(ccc2n(-c2cccc(NS(=O)(=O)c4ccccc4)c2)c1=O)CCCC3 [Example 22, N-[3-(2,3-Dioxo-2,3,7,8,9,10-hexahydro-1H-benzo[f]quinoxalin-4-yl)phenyl]benzenesulfonamide]	800
Cc1nnc(-c2cccc(-n3c(=O)c(=O)[nH]c4c5ccccc5ccc43)c2)o1 [Example 15, 4-[3-(5-Methyl-[1,3,4]oxadiazol-2-yl)phenyl]-1,4-dihydrobenzo[f]quinoxaline-2,3-dione]	6700
O=C(Cc1ccccc1I)Nc1cccc(-n2c(=O)c(=O)[nH]c3c4ccccc4ccc32)c1 [Example 14, 4-[3-[(2-Iodophenylacetyl)amino]phenyl)-1,4-dihydrobenzo[f]quinoxaline-2,3-dione]	880
O=C(Nc1cccc(-n2c(=O)c(=O)[nH]c3c4c(ccc32)CCCC4)c1)c1ccccc1C(F)(F)F [Example 21]	7700
Nc1cccc(-n2c(=O)c(=O)[nH]c3c4ccccc4ccc32)c1 [Example 13, 4-(3-Aminophenyl)-1,4-dihydrobenzo[f]quinoxaline-2,3-dione hydrochloride]	2100
O=c1[nH]c2c3c(ccc2n(-c2cccc(NS(=O)(=O)c4cccc(Br)c4)c2)c1=O)CCCC3 [Example 23, 3-Bromo-N-[3-(2,3-dioxo-2,3,7,8,9,10-hexahydro-1H-benzo[f]quinoxalin-4-yl)phenyl]benzenesulfonamide]	1300
